Bridge positions count the residues as written; N and C are the ends. Square brackets hold non-standard residues; d marks the D form. Peptide text beside a SMILES is read from it. hArg = N=C(N)NCCCC[C@H](N)C(=O)O; Mpa = O=C(O)CCS
Legend:
[1] = clinical; settings: human, in vivo, iv, Vdss
[2] = clinical; settings: human, in vivo, iv, CL
[3] = clinical; settings: human, in vivo, iv
[4] = clinical; settings: human, in vivo, iv; remark: listed apart in the source
[5] = clinical; settings: human, in vivo, iv, t1/2

| Compound | Vd [1] [L/kg] | clearance [2] [mL/min/kg] | fraction unbound [3] | MRT [4] [h] | half-life [5] [h] |
| --- | --- | --- | --- | --- | --- |
| C[C@@H](CN1CC(=O)NC(=O)C1)N1CC(=O)NC(=O)C1 [DEXRAZOXANE] | 0.55 | 3.1 | 1 | 3 | 2.5 |
| O=C(O)c1cc(-c2ccc(F)cc2F)ccc1O [DIFLUNISAL] | 0.097 | 0.1 | 0.0016 | 14 | 10 |
| CCC1CN2CCC1CC2[C@@H](O)c1ccnc2ccc(OC)cc12 (stereo not given in full) [DIHYDROQUINIDINE] | 2.8 | 4.2 | 0.22 | 11 | 5.7 |
| CCC(C)(C)NCC(O)COc1ccccc1C(=O)CCc1ccccc1 (stereo not given) [DIPRAFENONE] | 1.2 | 11 | 0.017 | 1.9 | 1.5 |
| CC(C)N(CCC(C(N)=O)(c1ccccc1)c1ccccn1)C(C)C (stereo not given) [DISOPYRAMIDE] | 0.52 | 0.9 | 0.16 | 9.6 | 7 |
| CC(=O)O[C@@]12CO[C@@H]1C[C@H](O)[C@@]1(C)C(=O)[C@H](O)C3=C(C)[C@@H](OC(=O)[C@H](O)[C@@H](NC(=O)OC(C)(C)C)c4ccccc4)C[C@@](O)([C@@H](OC(=O)c4ccccc4)[C@H]21)C3(C)C.O.O.O [DOCETAXEL] | 2.1 | 14 | 0.04 | 2.5 | 11 |
| COc1cc(CC2c3c(cc(OC)c(OC)c3OC)CC[N+]2(C)CCCOC(=O)CCC(=O)OCCC[N+]2(C)CCc3cc(OC)c(OC)c(OC)c3C2Cc2cc(OC)c(OC)c(OC)c2)cc(OC)c1OC (stereo not given) [DOXACURIUM] | 0.22 | 2.7 | 0.53 | 1.4 | 1.7 |
| CCCCCc1cc(O)c2c(c1)OC(C)(C)[C@@H]1CCC(C)=C[C@@H]21 [DRONABINOL] | 8.9 | 3.2 | 0.05 | 46 | 33 |
| CC(=O)[C@H]1CC[C@H]2[C@@H]3CC[C@@H]4C[C@H](O)CC[C@]4(C)[C@H]3CC[C@]12C [ELTANOLONE] | 2 | 22 | 0.01 | 1.5 | 4.7 |
| CCn1cc(C(=O)O)c(=O)c2cc(F)c(N3CCNCC3)nc21 [ENOXACIN] | 2 | 5.4 | 0.8 | 6.2 | 5.1 |
| CSc1ccc(C(=O)c2[nH]c(=O)[nH]c2C)cc1 [ENOXIMONE] | 1.8 | 29 | 0.3 | 1 | 1 |
| CCCn1c(=O)[nH]c(=O)c2[nH]cnc21 [ENPROFYLLINE] | 0.63 | 4 | 0.55 | 2.6 | 1.8 |
| N=C(N)NCCCC[C@@H]1NC(=O)CCSSC[C@@H](C(N)=O)NC(=O)[C@@H]2CCCN2C(=O)[C@H](Cc2c[nH]c3ccccc23)NC(=O)[C@H](CC(=O)O)NC(=O)CNC1=O [EPTIFIBATIDE] ([Mpa][hArg]GDWPC-NH2; disulfide 1-7) | 0.17 | 1.2 | 0.75 | 2.4 | 4.2 |
| CN1C[C@H](C(=O)N[C@]2(C)O[C@@]3(O)[C@@H]4CCCN4C(=O)[C@H](Cc4ccccc4)N3C2=O)C=C2c3cccc4[nH]cc(c34)C[C@H]21 [ERGOTAMINE] | 3.6 | 15 | 0.02 | 4 | 2.1 |
| CC[C@@H](CO)NCCN[C@@H](CC)CO [ETHAMBUTOL] | 1.7 | 10 | 0.18 | 2.7 | 3.1 |
| C#C[C@]1(O)CC[C@H]2[C@@H]3CCc4cc(O)ccc4[C@H]3CC[C@@]21C [ETHINYL ESTRADIOL] | 4.3 | 7 | 0.014 | 11 | 9.7 |

| Compound | Vd [1] [L/kg] | clearance [2] [mL/min/kg] | fraction unbound [3] | MRT [4] [h] | half-life [5] [h] |
| --- | --- | --- | --- | --- | --- |
| Cc1ccc(-c2ncc(Cl)cc2-c2ccc(S(C)(=O)=O)cc2)cn1 [ETORICOXIB] | 1.5 | 0.79 | 0.081 | 32 | 26 |
| NC(N)=Nc1nc(CSCCC(N)=NS(N)(=O)=O)cs1 [FAMOTIDINE] | 1.2 | 6.6 | 0.84 | 3 | 2.8 |
| COc1ccc(Cl)cc1[C@]1(F)C(=O)Nc2cc(C(F)(F)F)ccc21 [FLINDOKALNER] | 10 | 15 | 0.0038 | 11 | 37 |
| Nc1nc(F)nc2c1ncn2[C@@H]1O[C@H](CO)[C@@H](O)[C@@H]1O [FLUDARABINE] | 2.2 | 3.2 | 0.76 | 12 | 11 |
| O=C1OC2(c3ccc(O)cc3Oc3cc(O)ccc32)c2ccccc21 [FLUORESCEIN] | 0.14 | 1.3 | 0.11 | 1.8 | 1.6 |
| CCC(=O)O[C@]1(C(=O)SCF)[C@H](C)C[C@H]2[C@@H]3C[C@H](F)C4=CC(=O)C=C[C@]4(C)[C@@]3(F)[C@@H](O)C[C@@]21C [FLUTICASONE PROPIONATE] | 3.6 | 17 | 0.1 | 3.9 | 6 |
| O=P(O)(O)OC(Cn1cncn1)(Cn1cncn1)c1ccc(F)cc1F [FOSFLUCONAZOLE] | 0.15 | 1.3 | 0.042 | 2 | 2.1 |
| Nc1ccn([C@@H]2O[C@H](CO)[C@@H](O)C2(F)F)c(=O)n1 [GEMCITABINE] | 1.5 | 32 | 1 | 0.81 | 1 |
| C#C[C@]1(O)C=C[C@H]2[C@@H]3CCC4=CC(=O)CC[C@@H]4[C@H]3CC[C@@]21CC [GESTODENE] | 0.46 | 0.8 | 0.023 | 9.6 | 10 |
| CN1C(=O)NC(=O)C(C)(C2=CCCCC2)C1=O (stereo not given) [HEXOBARBITAL] | 1.1 | 3.4 | 0.53 | 5.4 | 4.9 |
| NNc1nncc2ccccc12 [HYDRALAZINE] | 1.5 | 85 | 0.12 | 0.29 | 0.96 |
| CCN(CCO)CCCC(C)Nc1ccnc2cc(Cl)ccc12 (stereo not given) [HYDROXYCHLOROQUINE] | 700 | 11 | 0.57 | 1300 | 850 |
| CCCCCN(C)CCC(O)(P(=O)(O)O)P(=O)(O)O [IBANDRONIC ACID] | 0.55 | 1.8 | 0.15 | 5.1 | 14 |
| CC(=O)[C@]1(O)Cc2c(O)c3c(c(O)c2[C@@H](O[C@H]2C[C@H](N)[C@H](O)[C@H](C)O2)C1)C(=O)c1ccccc1C3=O [IDARUBICIN] | 38 | 24 | 0.076 | 26 | 16 |
| Nc1cc(-c2ccncc2)c[nH]c1=O [INAMRINONE] | 1.3 | 8.9 | 0.89 | 2.4 | 2 |
| CC1(C)C(/C=C/C=C/C=C/C=C2/N(CCCCS(=O)(=O)[O-])c3ccc4ccccc4c3C2(C)C)=[N+](CCCCS(=O)(=O)[O-])c2ccc3ccccc3c21.[Na+] [INDOCYANINE GREEN] | 0.035 | 6.8 | 0.05 | 0.086 | 0.065 |

Source: ChEMBL document CHEMBL1614632, “Trend analysis of a database of intravenous pharmacokinetic parameters in humans for 670 drug compounds” (Drug Metab Dispos, 2008)
